Test results: PMC3950666, “Cellular trafficking determines the exon skipping activity of Pip6a-PMO in mdx skeletal and cardiac muscle cells” (Nucleic Acids Research, 2013)
Where two headings read alike, the source gives them in different places.

Tests used:
[1] = 1 µM concentration; cited from earlier work
Description: A full comparison of EC50 values is difficult since ...

[2] = tested on: dystrophin pre-mRNA exon 23 in H2k mdx myotubes; assay: Exon 23 skipping by nested RT-PCR in differentiated H2k mdx myotubes; type: cell-based, mouse
[3] = tested on: dystrophin pre-mRNA exon 23 in H2k mdx myoblasts; assay: Exon 23 skipping by nested RT-PCR in undifferentiated H2k mdx myoblasts; type: cell-based, mouse
[4] = tested on: dystrophin pre-mRNA exon 23 in C2C12 myotubes; assay: Exon 23 skipping by nested RT-PCR in differentiated C2C12 myotubes; type: cell-based, mouse; details: serum-containing transfection media, 24 h post-treatment
Method: Figure S3. Exon skipping efficiency of Pip6a-PMO in C2C12 skeletal muscle cells. C2C12 cells were differentiated for 6 days and thereafter incubated with Pip6a-PMO under serum condition (+S). Transfections were carried out for 4 h under serum conditions and cells were incubated further with serum-containing medium for 20 h. Exon skipping efficiency was evaluated on pre-mRNA levels by nested RT-PCR. Products were separated by gel electrophoresis and exon skipping values were derived from densitometric analysis. (Percentage of exon skipping (%ES) calculated as described in Figure S1 with n≥4).

[5] = tested on: dystrophin pre-mRNA exon 23 in primary wild-type cardiomyocytes; assay: Exon 23 skipping by nested RT-PCR in primary wild-type cardiomyocytes; type: cell-based, mouse; details: for %ES (percentage of exon skipping): 1000 nM, WT (healthy) cardiomyocytes, serum-containing medium, 24 h post-treatment, n ≥ 4
[6] = tested on: dystrophin pre-mRNA exon 23 in primary mdx cardiomyocytes; assay: Exon 23 skipping by nested RT-PCR in primary mdx cardiomyocytes; type: cell-based, mouse
H2k mdx myotubes = assay: Cellular uptake by fluorescence spectroscopy in H2k mdx myotubes
Method: After incubation with 3′-fluorescein labelled Pip6a-PMO or 3′-fluorescein-labelled PMO, cells were washed twice with PBS and lysed with 300 µl GLB buffer (Promega). In all, 100 µl of the lysate were transferred into black non-binding 96-well plates (Greiner) and fluorescence was measured on a Tecan plate reader (Ex 485 nm/Em 520 nm). Protein concentration was measured by a BCA kit (Pierce) on a Tecan plate reader (Abs 560 nm).

**Q.** Which reported exon-skipping level [1] does the source give for “(RXRRBR)2 [B-PMO, PMO covalently linked to the (RXRRBR)2 B-peptide, previously described PPMO]” here?
**A.** ~45%

**Q.** Which exon skipping ([2]; 1 µM, statement of the discussion) does the source give for “Ac-RXRRBRRXRYQFLIRXRBRXRB-OH [Pip6a-PMO]” here?
**A.** complete exon skipping

**Q.** What about the EC50 ([2]; 48 h post-treatment (4 h transfection, then 44 h serum-containing medium), serum condition (+S), read-out: EC50 at 48 h (exon 23 skipping)) of the same substance?
**A.** 0.02 µM

**Q.** What about the EC50 ([2]; serum-free medium (-S), 24 h post-treatment, Prism 5.0 after normalization of the Δ23 skipping, read-out: EC50 (concentration required to achieve 50% exon 23 skipping)) of the same substance?
**A.** 0.041 µM

**Q.** And the EC50 ([2]; serum-supplemented transfection medium (+S), 24 h post-treatment, Prism 5.0 after normalization, read-out: EC50 (exon 23 skipping))?
**A.** 0.03 µM

**Q.** What about the “EC50 in H2k mdx myoblasts relative to H2k mdx myotubes” value ([3]; 183 nM in myoblasts compared with myotubes) of the same substance?
**A.** ~6 times

**Q.** And the EC50 ([3]; undifferentiated H2k mdx myoblasts, data not shown)?
**A.** 0.183 µM

**Q.** And the EC50 [4]?
**A.** 0.107 µM

**Q.** And the “%ES (percentage of exon skipping)” value [5]?
**A.** 44%

**Q.** What about the “change of exon skipping with 48 h incubation” value ([5]; 48 h post-treatment compared with 24 h, primary wild type cardiomyocytes, Supplementary Figure S7) of the same substance?
**A.** did not increase significantly

**Q.** What about the EC50 ([6]; primary cardiomyocytes from neonatal mdx and wild-type mice, not distinguished, approximate) of the same substance?
**A.** ~1 µM

**Q.** And the “effect of EIPA on cellular delivery and exon-skipping activity” value (H2k mdx myotubes; 250 nM, 4 h, EIPA 10 µM, 30 min pre-treatment, n ≥ 4)?
**A.** only negligible effects

**Q.** And the “effect of CPZ on cellular delivery and exon-skipping activity” value (H2k mdx myotubes; 250 nM, 4 h, chlorpromazine 30 µM, 30 min pre-treatment, n ≥ 4)?
**A.** only negligible effects

**Q.** And the “effect of nystatin on uptake and exon 23-skipping efficiency” value (H2k mdx myotubes; 250 nM, 4 h, nystatin 50 µM, 30 min pre-treatment, n ≥ 4)?
**A.** pronounced effect

**Q.** And the “increase of uptake in myotubes versus myoblasts” value (H2k mdx myotubes; H2k mdx cells, 4 h incubation, fluorescence spectroscopy)?
**A.** 2 fold

**Q.** For “PMO: phosphorodiamidate morpholino oligomer 5′-GGCCAAACCTCGGCTTACCTGAAAT-3′ with 5′-amino linker and 3′-fluorescein label, Gene Tools (morpholino, 5'-amino linker, 3'-fluorescein, chemistry not fully specified) [reference compound]”, which “%ES (percentage of exon skipping)” value ([5]; listed as naked PMO) is on record?
**A.** failed to induce any exon skipping

**Q.** And the “%ES (percentage of exon skipping)” value ([6]; 1000 nM, mdx cardiomyocytes, serum-containing medium, 24 h post-treatment, n ≥ 4, listed as naked PMO)?
**A.** failed to induce any exon skipping

**Q.** And the “cellular uptake (fluorescence)” value (H2k mdx myotubes; 1000 nM, 4 h incubation, cell lysate fluorescence Ex 485 nm/Em 520 nm)?
**A.** no uptake
